# Source: ChEMBL document CHEMBL3045804, “Synthesis and Herbicidal Activity of 2-Benzylamino-4-methyl-6-trifluoromethyl-1, 3, 5-triazune Derivatives” (J Pestic Sci, 1998)
# Columns and labels:
# Format in all cases: functional
# Echinochloa crus-galli [1] = experiment: Herbicidal activity against Echinochloa crus-galli (barnyard grass) assessed as killing at 800 g/10 acre measured after 3 weeks by pre-emergence/field application test
# Chenopodium album [2] = experiment: Herbicidal activity against Chenopodium album assessed as killing at 800 g/10 acre measured after 3 weeks by pre-emergence/field application test
# Digitaria ciliaris [3] = experiment: Herbicidal activity against Digitaria ciliaris assessed as killing at 800 g/10 acre measured after 3 weeks by pre-emergence/field application test
# Echinochloa oryzicola [4] = experiment: Herbicidal activity against Echinochloa oryzicola assessed as killing at 800 g/10 acre measured after 3 weeks by pre-emergence/paddy application test
# [5] = tested on: Schoenoplectiella juncoides; experiment: Herbicidal activity against Schoenoplectiella juncoides assessed as killing at 800 g/10 acre measured after 3 weeks by pre-emergence/paddy application test
# Pontederia vaginalis [6] = experiment: Herbicidal activity against Monochoria vaginalis assessed as killing at 800 g/10 acre measured after 3 weeks by pre-emergence/paddy application test
# Rotala indica [7] = experiment: Herbicidal activity against Rotala indica assessed as killing at 800 g/10 acre measured after 3 weeks by pre-emergence/paddy application test
# Chenopodium album [8] = experiment: Herbicidal activity against Chenopodium album assessed as killing at 400 g/10 acre measured after 3 weeks by post-emergence/foliar application test
# Stellaria media [9] = experiment: Herbicidal activity against Stellaria media assessed as killing at 800 g/10 acre measured after 3 weeks by pre-emergence/field application test
# Digitaria ciliaris [10] = experiment: Herbicidal activity against Digitaria ciliaris assessed as killing at 400 g/10 acre measured after 3 weeks by post-emergence/foliar application test
# Echinochloa crus-galli [11] = experiment: Herbicidal activity against Echinochloa crus-galli (barnyard grass) assessed as killing at 400 g/10 acre measured after 3 weeks by post-emergence/foliar application test
# Stellaria media [12] = experiment: Herbicidal activity against Stellaria media assessed as killing at 400 g/10 acre measured after 3 weeks by post-emergence/foliar application test
# Digitaria ciliaris [13] = experiment: Herbicidal activity against Digitaria ciliaris assessed as killing at 100 g/10 acre measured after 3 weeks by post-emergence/foliar application test
# Echinochloa crus-galli [14] = experiment: Herbicidal activity against Echinochloa crus-galli (barnyard grass) assessed as killing at 100 g/10 acre measured after 3 weeks by post-emergence/foliar application test
# Rotala indica [15] = experiment: Herbicidal activity against Rotala indica assessed as killing at 100 g/10 acre measured after 3 weeks by pre-emergence/paddy application test
# Digitaria ciliaris [16] = experiment: Herbicidal activity against Digitaria ciliaris assessed as killing at 100 g/10 acre measured after 3 weeks by pre-emergence/field application test
# Chenopodium album [17] = experiment: Herbicidal activity against Chenopodium album assessed as killing at 100 g/10 acre measured after 3 weeks by post-emergence/foliar application test
# [18] = tested on: Schoenoplectiella juncoides; experiment: Herbicidal activity against Schoenoplectiella juncoides assessed as killing at 100 g/10 acre measured after 3 weeks by pre-emergence/paddy application test
# Echinochloa oryzicola [19] = experiment: Herbicidal activity against Echinochloa oryzicola assessed as killing at 100 g/10 acre measured after 3 weeks by pre-emergence/paddy application test
# Pontederia vaginalis [20] = experiment: Herbicidal activity against Monochoria vaginalis assessed as killing at 100 g/10 acre measured after 3 weeks by pre-emergence/paddy application test
# Echinochloa crus-galli [21] = experiment: Herbicidal activity against Echinochloa crus-galli (barnyard grass) assessed as killing at 100 g/10 acre measured after 3 weeks by pre-emergence/field application test
# Stellaria media [22] = experiment: Herbicidal activity against Stellaria media assessed as killing at 100 g/10 acre measured after 3 weeks by pre-emergence/field application test
# Stellaria media [23] = experiment: Herbicidal activity against Stellaria media assessed as killing at 100 g/10 acre measured after 3 weeks by post-emergence/foliar application test
# Chenopodium album [24] = experiment: Herbicidal activity against Chenopodium album assessed as killing at 100 g/10 acre measured after 3 weeks by pre-emergence/field application test
SMILES,Activity (Echinochloa crus-galli [1]) [%],Activity (Chenopodium album [2]) [%],Activity (Digitaria ciliaris [3]) [%],Activity (Echinochloa oryzicola [4]) [%],Activity [5] [%],Activity (Pontederia vaginalis [6]) [%],Activity (Rotala indica [7]) [%],Activity (Chenopodium album [8]) [%],Activity (Stellaria media [9]) [%],Activity (Digitaria ciliaris [10]) [%],Activity (Echinochloa crus-galli [11]) [%],Activity (Digitaria ciliaris [13]) [%],Activity (Echinochloa crus-galli [14]) [%],Activity (Rotala indica [15]) [%],Activity (Digitaria ciliaris [16]) [%],Activity (Chenopodium album [17]) [%],Activity [18] [%],Activity (Echinochloa crus-galli [21]) [%],Activity (Stellaria media [23]) [%],Activity (Chenopodium album [24]) [%],further results
CCc1nc(C)nc(NCc2ccccc2)n1,0,51,0,76,1,51,51,–,–,–,–,–,–,–,–,–,–,–,–,–,–
Cc1nc(NCc2ccccc2)nc(C(F)(F)F)n1,100,–,100,76,76,100,91,100,100,76,51,–,–,–,–,–,–,–,–,–,–
Cc1nc(NCc2ccccc2)nc(-c2ccccc2)n1,0,0,0,0,0,0,0,0,0,0,0,–,–,–,–,–,–,–,–,–,Activity (Stellaria media [12]): 0%
Cc1nc(NCc2ccc(Cl)cc2)nc(C(F)(F)F)n1,–,–,–,–,–,–,–,–,–,–,–,76,26,91,91,100,76,51,100,100,Activity (Echinochloa oryzicola [19]): 76%; Activity (Pontederia vaginalis [20]): 100%; Activity (Stellaria media [22]): 91%
Cc1nc(NCc2ccccc2Cl)nc(C(F)(F)F)n1,–,–,–,–,–,–,–,–,–,–,–,0,0,76,1,26,1,1,76,26,Activity (Echinochloa oryzicola [19]): 0%; Activity (Pontederia vaginalis [20]): 26%; Activity (Stellaria media [22]): 76%
Cc1nc(NCc2ccc(F)cc2)nc(C(F)(F)F)n1,–,–,–,–,–,–,–,–,–,–,–,91,51,100,76,–,51,76,100,91,Activity (Echinochloa oryzicola [19]): 76%; Activity (Pontederia vaginalis [20]): 91%; Activity (Stellaria media [22]): 100%
Cc1nc(C)nc(NCc2ccccc2)n1,0,0,0,51,0,100,1,51,0,1,1,–,–,–,–,–,–,–,–,–,–
Cc1nc(NCc2ccc(C(C)(C)C)cc2)nc(C(F)(F)F)n1,–,–,–,–,–,–,–,–,–,–,–,0,26,91,76,76,1,26,100,91,Activity (Echinochloa oryzicola [19]): 26%; Activity (Pontederia vaginalis [20]): 26%; Activity (Stellaria media [22]): 91%
Cc1ccc(CNc2nc(C)nc(C(F)(F)F)n2)cc1,–,–,–,–,–,–,–,–,–,–,–,0,1,76,1,91,0,76,100,91,Activity (Echinochloa oryzicola [19]): 51%; Activity (Pontederia vaginalis [20]): 26%; Activity (Stellaria media [22]): 91%
Cc1nc(NCc2ccccc2)nc(C(Cl)(Cl)Cl)n1,0,0,0,76,51,100,91,0,0,0,0,–,–,–,–,–,–,–,–,–,Activity (Stellaria media [12]): 0%
CCNc1nc(Cl)nc(NC(C)C)n1 [ATRAZINE],–,–,–,–,–,–,–,–,–,–,–,0,26,–,–,100,–,–,100,–,–
CCCc1nc(C)nc(NCc2ccccc2)n1,0,0,0,26,1,26,26,91,0,1,1,–,–,–,–,–,–,–,–,–,–
COc1ccc(CNc2nc(C)nc(C(F)(F)F)n2)cc1,–,–,–,–,–,–,–,–,–,–,–,26,26,76,0,100,1,76,100,76,Activity (Echinochloa oryzicola [19]): 26%; Activity (Pontederia vaginalis [20]): 51%; Activity (Stellaria media [22]): 91%
Cc1nc(NCc2ccc(Br)cc2)nc(C(F)(F)F)n1,–,–,–,–,–,–,–,–,–,–,–,100,26,100,91,100,76,76,100,100,Activity (Echinochloa oryzicola [19]): 51%; Activity (Pontederia vaginalis [20]): 91%; Activity (Stellaria media [22]): 91%
Cc1nc(NCc2ccc(C(F)(F)F)cc2)nc(C(F)(F)F)n1,–,–,–,–,–,–,–,–,–,–,–,100,1,91,100,100,51,76,100,91,Activity (Echinochloa oryzicola [19]): 51%; Activity (Pontederia vaginalis [20]): 76%; Activity (Stellaria media [22]): 100%
Cc1nc(NCc2cccc(Cl)c2)nc(C(F)(F)F)n1,–,–,–,–,–,–,–,–,–,–,–,91,51,100,51,100,51,1,100,76,Activity (Echinochloa oryzicola [19]): 51%; Activity (Pontederia vaginalis [20]): 51%
CCNc1nc(Cl)nc(NCC)n1 [SIMAZINE],–,–,–,–,–,–,–,–,–,–,–,–,–,–,51,–,–,26,–,91,Activity (Stellaria media [22]): 91%
c1ccc(CNc2ncncn2)cc1,0,0,0,0,0,0,0,0,0,0,0,–,–,–,–,–,–,–,–,–,Activity (Stellaria media [12]): 0%
Cc1ncnc(NCc2ccccc2)n1,0,0,0,51,0,0,0,0,0,0,0,–,–,–,–,–,–,–,–,–,Activity (Stellaria media [12]): 0%
Cc1nc(NCCc2ccccc2)nc(C(F)(F)F)n1,51,91,76,26,26,76,91,91,–,0,0,–,–,–,–,–,–,–,–,–,–
CCc1nc(NCc2ccccc2)nc(C(F)(F)F)n1,51,–,100,91,100,100,91,51,100,1,1,–,–,–,–,–,–,–,–,–,–
CC(C)c1nc(NCc2ccccc2)nc(C(F)(F)F)n1,76,76,76,100,100,100,91,0,26,0,0,–,–,–,–,–,–,–,–,–,Activity (Stellaria media [12]): 0%
Cc1nc(NCCCc2ccccc2)nc(C(F)(F)F)n1,76,76,100,1,1,51,51,100,100,76,91,–,–,–,–,–,–,–,–,–,–
